# Assay results as given in patent US9388382B2, “Isolation of CD14 negative, CD45 positive and CD117 positive embryonic-like stem cells free of monocytes from human umbilical cord blood mononuclear cells” (THE BOARD OF TRUSTEES OF THE UNIVERSITY OF ILLINOIS, priority 2005, dated 2016).
# Tests used:
# [1] = test system: ConA-stimulated lymphocytes of diabetic NOD mouse; assay: ConA-stimulated autoimmune lymphocyte proliferation in coculture with differentiated embryonic-like stem cells; format: cell-based; conditions: MGTA 10 μM, p<0.01
# Protocol: The specific carboxypeptidase inhibitor, carboxypeptidase inhibitor 2-mercaptomethyl-3-guanidinoethylthiopropanoic acid (MGTA, 10 μM) was applied to block carboxypeptidase. First, embryonic-like stem cells were differentiated by treatment with 10 nM Exendin4+10 ng/ml GM-CSF+25 mM glucose in 7% FBS-DMEM culture medium for 3-5 days. Second, autoimmune lymphocytes were isolated form the diabetic NOD mouse and then cocultured with these embryonic-like stem cells in the presence MGTA. The mouse lymphocyte mitogen concanavalin A (ConA) was used to stimulate the proliferation of lymphocytes.
# [2] = test system: human peripheral blood lymphocyte subsets; assay: Coculture of CB-SC with lymphocytes, flow analysis of T cell subsets; format: cell-based; conditions: PHA stimulation without CB-SC, p<0.05
# Text: CB-SC adhere very tightly to the culture dishes and display large rounded morphology, it is easy to distinguish between CB-SC and lymphocytes. CB-SC growing at 80% confluence were used for coculture with allogeneic lymphocytes. Allogeneic lymphocytes were collected from buffy coats of healthy donors (Life-Source Blood Services, Glenview, Ill.) after Ficoll-Hypaque separation followed by removing all attached cells and then cocultured with CB-SC at the ratio (1:10) [Zhao, Y., H. Wang, and T. Mazzone. 2006. Identification of stem cells from human umbilical cord blood with embryonic and hematopoietic characteristics. Exp Cell Res. 2006, 312: 2454-2464. DOI: 10.1016/j.yexcr.2006.04.008. April 26; (Epub ahead of print)] of CB-SC.
# For PHA stimulation, lymphocyte suspensions (1×10^6 cells/ml) with or without PHA (10 μg/ml, Sigma) were seeded onto CB-SC cell cultures in regular culture medium. PHA-stimulated lymphocytes without CB-SC served as positive control; lymphocytes cultured only in regular medium served as negative control. Lymphocytes cocultured with CB-SC without PHA stimulation served as an additional negative control. For IL-2 stimulation, IL-2 (500 U/ml, eBioscience) was used. […]
# Flow analysis was preformed as previously described [Zhao, Y., H. Wang, and T. Mazzone. […] After staining, cells were analyzed using a CyAn ADP (DakoCytomation). […]
# [3] = test system: intracytoplasmic IL-10 in allogeneic lymphocytes; assay: Flow analysis of intracellular IL-10 production; format: cell-based, human; conditions: PHA-stimulated lymphocytes without CB-SC
# Protocol: Allogeneic lymphocytes were cocultured with CB-SC at ratio 1:10 of CB-SC: lymphocytes, in the presence or absence of mitogen PHA. After coculture for 5-6 days, cells were permeabalized and evaluated for intracytoplasmic IL-10 level by flow cytometry. Isotype-matched mouse IgG1κ antibody served as negative control. Data represent one of at least three experiments with the similar results;
# (§1) For PHA stimulation, lymphocyte suspensions (1×10^6 cells/ml) with or without PHA (10 μg/ml, Sigma) were seeded onto CB-SC cell cultures in regular culture medium. PHA-stimulated lymphocytes without CB-SC served as positive control; lymphocytes cultured only in regular medium served as negative control. Lymphocytes cocultured with CB-SC without PHA stimulation served as an additional negative control. For IL-2 stimulation, IL-2 (500 U/ml, eBioscience) was used. After 5-6 days, the suspended lymphocytes were collected for cell count and/or flow analysis.
# Flow analysis was preformed as previously described [Zhao, Y., H. Wang, and T. Mazzone. 2006. Identification of stem cells from human umbilical cord blood with embryonic and hematopoietic characteristics. Exp Cell Res. 2006, 312: 2454-2464. DOI: 10.1016/j.yexcr.2006.04.008. April 26; (Epub ahead of print)]. […] After staining, cells were analyzed using a CyAn ADP (DakoCytomation).
# [4] = test system: DNA methyltransferase (DNMT) activity of lymphocytes; assay: DNA methyltransferase activity of lymphocytes regulated by CB-SC-derived NO; format: cell-based; conditions: presence of iNOS inhibitor
# [5] = test system: PHA- or IL-2-stimulated allogeneic lymphocytes; assay: Mitogen-stimulated lymphocyte proliferation in coculture with CB-SC (cell count); format: cell-based, human; conditions: 200 μM/day L-NNA for 3 days, p<0.05
# Protocol: as §1
# Unfixed CB-SC from same cord blood units served as controls. Additionally, we employed transwell culture system with 0.4 μm size (Sigma) to plant lymphocytes.
# In experiments where N^ω-nitro-L-arginine (L-NNA, Sigma) was used to inhibit NO synthase, the drug (200 μM L-NNA) was added 1 h before PHA stimulation and then administrated 200 μM/day for additional two days. [Ziche, M., L. Morbidelli, E. Masini, S. Amerini, H. J. Granger, C. A. Maggi, P. Geppetti, and F. Ledda. 1994. Nitric oxide mediates angiogenesis in vivo and endothelial cell growth and migration in vitro promoted by substance P. J Clin Invest. 94:2036-2044].
compound,measurement,setting,value
2-mercaptomethyl-3-guanidinoethylthiopropanoic acid [MGTA],reversal of stem-cell inhibition of ConA-stimulated lymphocyte proliferation,[1],completely revert their inhibition
phytohaemagglutinin [PHA],increase of CD8^+ and decrease of CD4^+ T cell percentage vs lymphocytes alone,[2],more than 2 fold
same,IL-10-positive cells,[3],80%
CC(=N)NCc1cccc(CN)c1 [1400 W],blocking of regulation of lymphocyte DNMT activity by CB-SC-derived NO,[4],significantly blocked
"NC(=NCCC[C@H](N)C(=O)O)N[N+](=O)[O-] [L-NNA, N-omega-nitro-L-arginine]",lymphocyte cell number in presence vs absence of L-NNA,[5],about 4 fold
